Assay: Thermal stability of Capecitabine on heating
Format: physicochemical
Conditions: heating at 90° C. during 10 hours at neutral pH
Experimental: The one step process for the preparation of Capecitabine disclosed in WO 2011/104540 suffers from important loses of the final product. Capecitabine suffers from thermal instability at high temperatures, and after heating the product at 90° C. during 10 hours at neutral pH, up to 40% of the product is lost. On the contrary, the enzymatic process of the invention runs at milder conditions, using water as solvent and furnishing yields higher than 70%.

CCCCCOC(=O)Nc1nc(=O)n([C@@H]2O[C@H](C)[C@@H](O)[C@H]2O)cc1F [Capecitabine, N^4-pentyloxycarbonyl-5′-deoxy-5-fluorocytidine]
product lost after heating (thermal instability): up to 40%

From patent US20160312261A1, “ENZYMATIC PRODUCTION OF CYTOSINIC NUCLEOSIDE ANALOGUES” (PLASMIA BIOTECH, S.L., priority 2015, published 2016)
